Patent US7812050B2, “Polymorphic form of fluoro-7-(2,2,2-trifluoroethoxy) phenoxathiin-10,10-dioxide” (CeNeRx BioPharma, Inc., priority 2006, dated 2010)

Columns and labels:
[1] = Particle size by light diffraction (Sympatec HELOS, dry powder dispersion); format: physicochemical
Procedure: Dispersion was performed on a sample of Form A of 3-fluoro-7-(2,2,2-trifluoroethoxy)phenoxathiin-10,10-dioxide produced accordance with the method presented in Example 4. Dispersion pressure of 0.5 to 2.0 bar was used to disperse the sample particles. Samples were analyzed by microscopy prior to particle size analysis to assess aggregation and estimate particle size, and without fracturing primary particles or causing aggregation. […] Particle size was measured using a Sympatec HELOS equipped with VIERI dry powder feeder unit, and sample measurements for optimization of jet pressure and repeatability were performed according to USP<429>, Method Validation Protocol ANC00756, and TM-1509 Rev.00 (draft).

[2] = Dissolution temperature in 10% (v/v) water in acetic acid; format: physicochemical; conditions: ratio (w/v) of compound to solvent about 1.6 g: 10 mL

x10 ([1]; Dispersion Pressure 0.5 bar): 3.05 μm
x50 ([1]; Dispersion Pressure 0.5 bar): 9.07 μm
x90 ([1]; Dispersion Pressure 0.5 bar): 24.49 μm
x10 ([1]; Dispersion Pressure 1 bar): 2.54 μm
x50 ([1]; Dispersion Pressure 1 bar): 7.96 μm
x90 ([1]; Dispersion Pressure 1 bar): 19.32 μm
x10 ([1]; Dispersion Pressure 1.5 bar): 2.21 μm
x50 ([1]; Dispersion Pressure 1.5 bar): 7.35 μm
x90 ([1]; Dispersion Pressure 1.5 bar): 17.1 μm
x10 ([1]; Dispersion Pressure 2 bar): 1.94 μm
x50 ([1]; Dispersion Pressure 2 bar): 6.88 μm
x90 ([1]; Dispersion Pressure 2 bar): 15.32 μm
temperature at which the form dissolves [2]: 75-85 °C
SMILES: O=S1(=O)c2ccc(F)cc2Oc2cc(OCC(F)(F)F)ccc21 [Form A, 3-fluoro-7-(2,2,2-trifluoroethoxy)phenoxathiin-10,10-dioxide]
